Molecules are shown by their SMILES.

Here are results for 6 compounds from patent US10294202B2, “Pyrrolidinones as herbicides” (FMC Corporation, priority 2013, dated 2019).

The test system of one test is wheat (winter wheat). As to the kind of experiment: Test C pre-/postemergence herbicide test. It is filed as in vivo, Triticum aestivum. As to conditions: Preemergence; for Plant response rating (scale of 0 to 100), Wheat: 250 g ai/ha. From the text: (§1) Seeds of plant species selected from blackgrass (Alopecurus myosuroides), ryegrass, Italian (Italian ryegrass, Lolium multiflorum), wheat (winter wheat, Triticum aestivum), galium (catchweed bedstraw, Galium aparine), corn (Zea mays), crabgrass, large (large crabgrass, Digitaria sanguinalis), foxtail, giant (giant foxtail, Setaria faberii), johnsongrass (Sorghum halepense), lambsquarters (Chenopodium album), morningglory (Ipomoea coccinea), nutsedge, yellow (yellow nutsedge, Cyperus esculentus), pigweed (Amaranthus retroflexus), ragweed (common ragweed, Ambrosia elatior), soybean (Glycine max), barnyardgrass (Echinochloa crus-galli), oilseed rape (Brassica napus), waterhemp (common waterhemp, Amaranthus rudis), kochia (Kochia scoparia), oat, wild (wild oat, Avena fatua), surinam grass (Brachiaria decumbens), foxtail, green (green foxtail, Setaria viridis), goosegrass (Eleusine indica), bromegrass, downy (downy bromegrass, Bromus tectorum), nightshade (eastern black nightshade, Solanum ptycanthum), cocklebur (common cocklebur, Xanthium strumarium), cupgrass, woolly (woolly cupgrass, Eriochloa villosa), bermudagrass (Cynodon dactylon), sunflower, (common oilseed sunflower, Helianthus annuus), Russian thistle (Salsola kali) and velvetleaf (Abutilon theophrasti) were planted into a blend of loam soil and sand and treated preemergence with test chemicals formulated in a non-phytotoxic solvent mixture which included a surfactant. At the same time, plants selected from these crop and weed species and also barley (winter barley, Hordeum vulgare), […]), chickweed (common chickweed, Stellaria media), deadnettle (henbit deadnettle, Lamium amplexicaule), and canarygrass (littleseed canarygrass, Phalaris minor) were planted in pots containing Redi-Earth® planting medium (Scotts Company, 14111 Scottslawn Road, Marysville, Ohio 43041) comprising spaghnum peat moss, vermiculite, wetting agent and starter nutrients and treated with postemergence applications of test chemicals formulated in the same manner. Plants ranged in height from 2 to 18 cm (1- to 4-leaf stage) for postemergence treatments. Treated plants and controls were maintained in a greenhouse for 13 to 15 days, after which time all species were compared to controls and visually evaluated. Plant response ratings, summarized in Table C, are based on a scale of 0 to 100 where 0 is no effect and 100 is complete control. A dash (-) response means no test result.

The next test concerns crabgrass, large. The test can be described thus: Test A pre-/postemergence herbicide test. In kind it is in vivo, Digitaria sanguinalis. Put shortly:
(§2)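 Scoring was visual, relative to untreated controls, on a 0–100 scale after about 10 greenhouse days. Preemergence treatment used a directed soil spray over seeded loam/sand; postemergence treatment targeted one- to two-leaf plants of 2–10 cm.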

The next test relates to blackgrass. As to the kind of experiment: Test C pre-/postemergence herbicide test. It is filed as in vivo, Alopecurus myosuroides. The note with it: Preemergence.
Excerpt: as §1

The test system of another test is velvetleaf. The test can be described thus: Test A pre-/postemergence herbicide test. In kind it is in vivo, Abutilon theophrasti. Put shortly: as §2
For the next test, the system named is corn. As to the kind of experiment: Test A pre-/postemergence herbicide test. In kind it is in vivo, Zea mays. The method, boiled down:
as §2

Another test concerns morningglory. The test can be described thus: Test A pre-/postemergence herbicide test. It is filed as in vivo, Ipomoea spp. Put shortly: as §2
The mark [1] stands for this setting: 31 g ai/ha, scale 0 to 100, 0 is no effect and 100 is complete control.
Setting [2] is: 62 g ai/ha, scale 0 to 100 (0 no effect, 100 complete control).
[3] abbreviates: Postemergence, 125 g ai/ha, 0 to 100 scale, 0 is no effect, 100 is complete control.
Setting [4] is: Postemergence, 500 g ai/ha, 0 to 100 scale (0 no effect, 100 complete control).
[5] abbreviates: Preemergence, 125 g ai/ha, 0 to 100 scale where 0 is no effect and 100 is complete control.
Where [6] appears, read: preemergence, 500 g ai/ha, 0 to 100 scale, 0 is no effect and 100 is complete control.
The mark [7] stands for this setting: 125 g ai/ha, scale 0 to 100 (0 no effect, 100 complete control).
Where [8] appears, read: Postemergence, 1000 g ai/ha, 0 to 100 scale (0 no effect, 100 complete control).
The mark [9] stands for this setting: Preemergence, 1000 g ai/ha, visual rating on 0 to 100 scale (0 no effect, 100 complete control), approx. 10 days.
Where [10] appears, read: 31 g ai/ha, scale 0 to 100 (0 no effect, 100 complete control).
The mark [11] stands for this setting: 250 g ai/ha, scale 0 to 100 (0 no effect, 100 complete control).
Where [12] appears, read: Postemergence, 125 g ai/ha, 0 to 100 scale, 0 no effect, 100 complete control.
Where [13] appears, read: Preemergence, 125 g ai/ha, visual rating on 0 to 100 scale (0 no effect, 100 complete control).
[14] abbreviates: preemergence, 500 g ai/ha, 0 to 100 scale.

Take `O=C1NCC(c2ccc(C(F)(F)F)nc2)C1C(=O)Nc1ccccc1F` (racemic) [Compound 262]: the “Wheat plant response rating” value in the test on wheat (winter wheat) (setting [1]) and in the test with wheat (winter wheat) (setting [2]) was 0 throughout. The “Plant response rating (scale of 0 to 100), Wheat” value with wheat (winter wheat) is on record as 0. Moreover, the “Plant response rating, Crabgrass, Large” value is 70 in the test with crabgrass, large (setting [3]); 80 in the test on crabgrass, large (setting [4]); 90 in the test on crabgrass, large (setting [5]); 90 in the test with crabgrass, large (setting [6]). Also, the “Blackgrass plant response rating” value with blackgrass (setting [1]) and in the test with blackgrass (setting [2]) was 0 each time. Besides, the “Plant response rating, Blackgrass” value in the test with blackgrass (setting [7]) stood at 0. The “Plant response rating (scale of 0 to 100), Blackgrass” value with blackgrass (250 g ai/ha) turned out to be 0. The “Plant response rating, Velvetleaf” value in the test with velvetleaf (setting [5]) and with velvetleaf (setting [6]) was 0 throughout. Moreover, the “Plant response rating, Corn” value with corn (setting [3]), with corn (setting [4]), in the test with corn (setting [5]) and with corn (setting [6]) was 0 each time. Also, the “Plant response rating, Morningglory” value in the test on morningglory (setting [3]), with morningglory (setting [4]), in the test on morningglory (setting [5]) and with morningglory (setting [6]) was 0 in each case.

Consider `O=C1NCC(c2cc(F)c(F)c(F)c2)C1C(=O)Nc1ccccc1C(F)(F)F` (racemic) [Compound 33], for which the “Plant response rating, Wheat” value stood at 0 in the test on wheat (winter wheat) (62 g ai/ha, scale 0 to 100) and 35 in the test with wheat (winter wheat) (setting [7]). The “Plant response rating, Crabgrass, Large” value with crabgrass, large (setting [8]) was found to be 90; in the test with crabgrass, large (setting [9]), 90. In addition, the “Blackgrass plant response rating” value in the test with blackgrass (setting [10]) is 0. Also, the “Plant response rating, Blackgrass” value is 0 in the test with blackgrass (62 g ai/ha, scale 0 to 100); 0 in the test on blackgrass (setting [7]); 5 in the test on blackgrass (setting [11]). Moreover, the “Plant response rating, Velvetleaf” value with velvetleaf (setting [8]) was 20; in the test with velvetleaf (setting [9]), 0. Also, the “Plant response rating, Corn” value was 40 in the test on corn (setting [8]) and 0 with corn (setting [9]). Besides, the “Plant response rating, Morningglory” value in the test on morningglory (setting [8]) turned out to be 20.

Turning to `Cc1ccccc1NC(=O)C1C(=O)NCC1c1cc(F)c(F)c(F)c1` (racemic) [Compound 35], the “Plant response rating, Wheat” value in the test with wheat (winter wheat) (62 g ai/ha, scale 0 to 100) is reported as 0; in the test on wheat (winter wheat) (setting [7]), 10. For the same compound, the “Plant response rating, Crabgrass, Large” value is reported as 90 with crabgrass, large (setting [8]) and 90 in the test with crabgrass, large (setting [9]). Moreover, the “Blackgrass plant response rating” value with blackgrass (setting [10]) turned out to be 0. The “Plant response rating, Blackgrass” value with blackgrass (62 g ai/ha, scale 0 to 100) stood at 0; in the test on blackgrass (setting [7]), 5; in the test on blackgrass (setting [11]), 50. Also, the “Plant response rating, Velvetleaf” value in the test on velvetleaf (setting [8]) and in the test on velvetleaf (setting [9]) was 0 throughout. For the same compound, the “Plant response rating, Corn” value in the test on corn (setting [8]) and in the test with corn (setting [9]) was 20 each time. For the same compound, the “Plant response rating, Morningglory” value in the test with morningglory (setting [8]) and in the test with morningglory (setting [9]) was 0 in each case.

Turning to `O=C1NCC(c2cccc(OC(F)(F)F)c2)C1C(=O)Nc1cccc(F)c1F` (stereo not drawn) [Compound 68], the “Wheat plant response rating” value in the test on wheat (winter wheat) (setting [1]) came out at 0. Besides, the “Plant response rating, Wheat” value in the test with wheat (winter wheat) (62 g ai/ha, scale 0 to 100) was determined as 5; in the test with wheat (winter wheat) (setting [7]) it was 30. The “Plant response rating, Crabgrass, Large” value stood at 90 with crabgrass, large (setting [12]); 90 with crabgrass, large (setting [4]); 90 in the test on crabgrass, large (setting [14]). In addition, the “Crabgrass, Large plant response rating” value with crabgrass, large (setting [13]) is 90. For the same compound, in the test on blackgrass (setting [1]), the “Blackgrass plant response rating” value was determined as 0. Further, the “Plant response rating, Blackgrass” value in the test with blackgrass (62 g ai/ha, scale 0 to 100) is 60; in the test with blackgrass (setting [7]), 60; in the test with blackgrass (setting [11]), 80. Besides, the entries for the “Plant response rating, Velvetleaf” value in the test on velvetleaf (setting [12]), in the test on velvetleaf (setting [4]) and in the test with velvetleaf (setting [14]) were 20, 20 and 0, respectively. Further, the “Velvetleaf plant response rating” value with velvetleaf (setting [13]) is given as 0. Besides, the “Plant response rating, Corn” value with corn (setting [12]) is 20; in the test on corn (setting [4]) it was 90; in the test on corn (setting [14]), 0. Moreover, the “Corn plant response rating” value in the test with corn (setting [13]) was found to be 0. Also, the “Plant response rating, Morningglory” value in the test with morningglory (setting [12]), with morningglory (setting [4]) and in the test on morningglory (setting [14]) was 0 each time. Further, the “Morningglory plant response rating” value in the test on morningglory (setting [13]) is on record as 0.

With `O=C1NCC(c2ccc(C(F)(F)F)c(F)c2)C1C(=O)Nc1ccccc1F` (racemic) [Compound 246], the “Wheat plant response rating” value in the test with wheat (winter wheat) (setting [1]) and with wheat (winter wheat) (setting [2]) was 0 throughout. Besides, the “Plant response rating, Wheat” value in the test with wheat (winter wheat) (setting [7]) was determined as 10. Moreover, the “Plant response rating (scale of 0 to 100), Wheat” value in the test with wheat (winter wheat) amounted to 30. Besides, the “Plant response rating, Crabgrass, Large” value was 50 in the test on crabgrass, large (setting [3]); 60 in the test with crabgrass, large (setting [4]); 90 in the test with crabgrass, large (setting [5]); 90 in the test with crabgrass, large (setting [6]). Moreover, the “Blackgrass plant response rating” value in the test with blackgrass (setting [1]) came to 0. In addition, the “Plant response rating, Blackgrass” value with blackgrass (62 g ai/ha, scale 0 to 100) was found to be 0; in the test with blackgrass (setting [7]) it was 5. The “Plant response rating (scale of 0 to 100), Blackgrass” value with blackgrass (250 g ai/ha) amounted to 70. For the same compound, the “Plant response rating, Velvetleaf” value in the test with velvetleaf (setting [3]), in the test on velvetleaf (setting [4]), with velvetleaf (setting [5]) and in the test on velvetleaf (setting [6]) was 0 in each case. Moreover, the “Plant response rating, Corn” value in the test on corn (setting [3]) came out at 20; in the test on corn (setting [4]), 30; with corn (setting [5]), 0; in the test with corn (setting [6]), 0. In addition, the “Plant response rating, Morningglory” value in the test with morningglory (setting [3]), with morningglory (setting [4]), in the test with morningglory (setting [5]) and in the test with morningglory (setting [6]) was 0 throughout.

For the compound `O=C1NCC(c2cccc(Br)c2)C1C(=O)Nc1cccc(F)c1F` (stereo not drawn) [Compound 64], the “Plant response rating, Wheat” value came to 5 in the test with wheat (winter wheat) (62 g ai/ha, scale 0 to 100) and 15 in the test with wheat (winter wheat) (setting [7]). The “Plant response rating, Crabgrass, Large” value is on record as 80 with crabgrass, large (setting [12]); 80 in the test on crabgrass, large (setting [4]); 90 with crabgrass, large (setting [14]). In the test with crabgrass, large (setting [13]), the “Crabgrass, Large plant response rating” value was found to be 80. Moreover, in the test on blackgrass (setting [10]), the “Blackgrass plant response rating” value worked out at 0. Further, the “Plant response rating, Blackgrass” value in the test on blackgrass (62 g ai/ha, scale 0 to 100) was 5; with blackgrass (setting [7]), 5; with blackgrass (setting [11]), 30. In addition, the “Plant response rating, Velvetleaf” value in the test with velvetleaf (setting [12]) turned out to be 0; in the test with velvetleaf (setting [4]) it was 30; with velvetleaf (setting [14]) it was 0. Also, in the test with velvetleaf (setting [13]), the “Velvetleaf plant response rating” value was 0. Besides, the figures for the “Plant response rating, Corn” value in the test on corn (setting [12]), in the test with corn (setting [4]) and in the test with corn (setting [14]) were 30, 40 and 20, respectively. Further, the “Corn plant response rating” value in the test on corn (setting [13]) turned out to be 20. For the same compound, the “Plant response rating, Morningglory” value in the test with morningglory (setting [12]), in the test with morningglory (setting [4]) and in the test with morningglory (setting [14]) was 0 each time. The “Morningglory plant response rating” value in the test with morningglory (setting [13]) is 0.
